Measurements published in patent US8912234B2, “Composition containing resveratrol and/or derivatives thereof and plant oil, process for producing said composition, nutraceutical and/or pharmaceutical product, and method for enhancing the potential of resveratrol” (UNIAO Brasileria de Educacao e Assistencia—Mantenedora da …, priority 2009, dated 2014).

Key:
[1] = test system: edematogenic response caused by CFA; test: Paw edema of chronic inflammation induced by CFA in mice; type: in vivo, male Swiss mice; conditions: 100 mg/kg oral, 1x a day for 7 days, starting 1 week after CFA; mice (FIG. 9)
Procedure: (§1) To perform the experiments, male Wistar rats (180 to 200 g) or male Swiss mice (25 to 30 g) were used, coming from the animal house of the Federal University of Pelotas (UFPEL; Pelotas, RS). We used 5 to 8 animals per group. The animals were kept in Room 108, located in Block E, of the Vivarium of Building 12, of the PUCRS, on ventilated shelves outfitted with incoming and outgoing air filters (brand Alesco), with controlled temperature (22±1° C.) and light/dark cycle of 12 h (lights turned on at 7:00 a.m.; lights turned off at 7:00 p.m.). Within the shelves, the animals were kept in cages suitable for rodents, filled with pine shavings (changed three times a week). The animals received pelletized ration (brand Nuvilab) and filtered water (filter brand Jojaco) ad libitum. The experiments were conducted in the Applied Pharmacology Laboratory I, located in Block C, Building 12, of the PUCRS. During the experimental procedures, the laboratory temperature was maintained at 22±1° C. […] In this series of experiments, the depressive behavior associated with chronic inflammation in mice was evaluated. […] The increase in volume was measured by plethysmometer, two weeks after the application of the CFA. The difference between the volume of the right and left paws was quantified (in ml) and taken as an indicator of edema. […] The time of immobility was measured for a period of 6 min. […]

[2] = test system: depressive behavior associated with the chronic inflammation caused by CFA; test: Depressive behavior associated with chronic inflammation in mice (tail suspension, time of immobility); type: in vivo, male Swiss mice; conditions: 100 mg/kg oral, 1x a day for 7 days, starting 1 week after CFA; immobility over 6 min; mice (FIG. 9)
Procedure: as §1

[3] = test system: edema caused by CFA; test: Model of polyarthritis induced by CFA in rats; type: in vivo, male Wistar rats; conditions: 100 mg/kg oral, twice a day for 8 days, from day 14 to 21 after CFA; rats (FIG. 7)
[4] = test system: edema of the paw caused by carrageenan; test: Model of acute inflammation by carrageenan in the paw of rats; type: in vivo, male Wistar rats; conditions: 100 mg/kg oral; for inhibition of the edema caused by carrageenan: therapeutic, 120 min after carrageenan, rats (FIG. 5)

Oc1ccc(C=Cc2cc(O)cc(O)c2)cc1 [resveratrol, 3,5,4′-trihydroxystilbene]
percentage of reduction of the edematogenic response caused by CFA [1]: 42±4% | depressive behavior (time of immobility) [2]: expressively reduced | inhibition of the formation of edema caused by CFA [3]: 17±5% | inhibition of the edema of the paw caused by carrageenan ([4]; preventive, 30 min prior to carrageenan, vs saline control, rats (FIG. 4)): 31±7% | inhibition of the edema caused by carrageenan ([4]; at 180 min): 35±8% | inhibition of the edema caused by carrageenan ([4]; at 240 min): 45±9%
